The test concerns K98450-129-R-PDC multicell spheroids, viability. Kind of test: Anticancer human tumor K98450-129-R-PDC patient-derived colon adenocarcinoma cell line growth inhibition [PI3K]. Conditions: for viability, T/C: stronger effect = lower value. An excerpt:
Combinatorial screen of targeted agents with the PI3K inhibitors inavolisib, alpelisib, duvelisib, and copanlisib in multi-cell type tumor spheroids
A high-throughput screen of multi-cell type tumor spheroids was designed to identify active combinations of targeted small molecules and PI3K pathway inhibitors. Complex spheroids include a stromal component modeled by human endothelial cells (HUVEC) and fibroblasts modeled by human mesenchymal stem cells (MSCs). The concentration ranges selected for each drug and investigational agent were based upon clinically achievable concentrations if the clinical Cmax of the agent was known.
Compounds. The drugs and investigational agents: inavolisib (NSC800729), alpelisib (NSC765974), duvelisib (NSC772469), copanlisib (NSC816437), ipatasertib (NSC767898), afuresertib (NSC778305), talazoparib (NSC767125), sapanisertib (NSC764658), selumetinib (NSC741078), tovorafenib (DAY101, NSC766906), vemurafenib (NSC761431), ravoxertinib (NSC781343), sotorasib (NSC818433), MRTX1133 (NSC 836407), abemaciclib (NSC 768073), palbociclib (NSC758247), venetoclax (NSC 766270), SY5609 (NSC837396), enzalutamide (NSC755605), and darolutamide (NSC825331), were obtained from the National Cancer Institute (NCI) Developmental Therapeutics Program Chemical Repository. The FDA-approved anticancer drug set is available from the NCI Developmental Therapeutics Program. […] The stock solutions were prepared in dimethyl sulfoxide (DMSO, Sigma-Aldrich, St. Louis, MO, cat. D2650) at 800-fold the tested concentration and stored at -70 degrees C prior to their use. All drugs and investigational agents were tested over a range starting from a high concentration at or near the clinical Cmax and decreasing in half-log increments. If the clinical Cmax for an agent had not been determined, the highest concentration tested was 10 microM.
Cell Culture. All cells were maintained in an incubator at 37 degrees C and 5% CO2 with 95% humidity. The PDC lines were cultured according to standard operating procedures established by the NCI PDMR (https://pdmr.cancer.gov/sops/default.htm). All PDCs were thawed and cultured in Matrigel-coated flasks prepared with a working solution of 1X Ham's F-12 nutrient mix, without supplementation (Invitrogen, Waltham, MA, cat. 11765054), 100 U/mL penicillin-streptomycin (Invitrogen, cat. 15140122), and 2.5% Matrigel (Corning Inc., Corning, NY, cat. 354248) for the first three passages. The 354836-022-R-J1-PDC, 475296-252-R-J1-PDC, and 997726-040-R-J2-PDC lines were cultured in 6A media, which includes advanced DMEM/F-12 (Thermo Fisher Scientific, cat. 12634028), 10 mM HEPES (Thermo Fisher Scientific, cat. 15630080), 1X GlutaMAX supplement (Thermo Fisher Scientific, cat. 35050061), 0.1 mg/mL primocin (InvivoGen, San Diego, CA, cat. ant-pm-2), 10% defined fetal bovine serum, heat inactivated (HyClone Laboratories Inc., Logan, UT, cat. SH30070.03HI), 50% L-WRN conditioned media (ATCC, cat. CRL-3276), 1.25 mM N-Acetyl-L-cysteine (Sigma-Aldrich, cat. A9165), 10 mM nicotinamide (Sigma-Aldrich, cat. N0636), 1X B-27 supplement (Thermo Fisher Scientific, cat. 17504044), 1X N-2 supplement (Thermo Fisher Scientific, cat. 17502048), and 10 microM Y-27632 dihydrochloride (Tocris Bioscience, Bristol, United Kingdom, cat. 1254). The 624824-186-R-J2-PDC line was cultured in 6C/Colon 1B media, which includes all 6A media components plus 50 ng/mL human EGF recombinant protein (Thermo Fisher Scientific, cat. PHG0311). […]

Where [1] appears, read: compound alone, run of 04/24/2023.
The mark [2] stands for this setting: compound alone, run of 04/25/2023.

SMILES strings stand for the structures. pIC50: −log10 of the molar value. Where “and” joins values, the source holds several entries; their conditions need not be identical. Identical values can stand only once. Bounds are passed on as bounds.
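Also: spheroids exposed to agents for seven days before read-out.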

In the case of `CC(=O)c1c(C)c2cnc(Nc3ccc(N4CCNCC4)cn3)nc2n(C2CCCC2)c1=O`, the viability, T/C (as a rule, the result in the treated group divided by that in the control group, in per cent) is 105% [middle of 4 runs] (compound 0.000316 µM); 106% [middle of 4 runs] (compound 0.001 µM); 104% [middle of 4 runs] (compound 0.00316 µM); 104% (2×) and 102% and 99.6% (compound 0.01 µM); 101% [middle of 4 runs] (compound 0.0316 µM); 95.5% [middle of 4 runs] (compound 0.1 µM). Moreover, under “curve of compound”, the pIC50 – broadly, −log10 of the IC50, conventionally taken in molar units – was under 7.00.
As to `CC(C)NCC(C(=O)N1CCN(c2ncnc3c2C(C)CC3O)CC1)c1ccc(Cl)cc1` (centres undefined), the viability, T/C reads like this: (compound 0.0316 µM) 94.2% and 100% and 107% (2×); (compound 0.1 µM) 100% (2×) and 93.4% and 105%; (compound 0.316 µM) 105% [middle of 4 runs]; (compound 1 µM) 106% (2×) and 92.7% and 87.9%; (compound 3.16 µM) 93% [middle of 4 runs]; (compound 10 µM) 99.5% and 102% (2×) and 99.9%. Moreover, the pIC50 (curve of compound) was under 5.00.
As to `CC(C)n1nc(-c2ccc3oc(N)nc3c2)c2c(N)ncnc21`, the viability, T/C is, setting by setting: (compound 0.000316 µM) 103% [middle of 4 runs]; (compound 0.001 µM) 104% [middle of 4 runs]; (compound 0.00316 µM) 99.9% [middle of 4 runs]; (compound 0.01 µM) 98.2% [middle of 4 runs]; (compound 0.0316 µM) 95.5% [middle of 4 runs]; (compound 0.1 µM) 78.2% [middle of 4 runs]. Also, the pIC50 (curve of compound) is under 7.00.
On to `CC(Cn1ccc(-c2ccc(C#N)c(Cl)c2)n1)NC(=O)c1cc(C(C)O)[nH]n1` (centres undefined), for which the viability, T/C was 92.4% and 103% (2×) and 102% (compound 0.0316 µM); 107% [middle of 4 runs] (compound 0.1 µM); 102% [middle of 4 runs] (compound 0.316 µM); 95.1% and 107% (2×) and 91.3% (compound 1 µM); 108% and 104% (2×) and 96.2% (compound 3.16 µM); 104% [middle of 4 runs] (compound 10 µM). The pIC50 (curve of compound) was under 5.00.
`CC(Nc1ccc2c(c1)OCCn1cc(N3C(=O)OCC3C(F)F)nc1-2)C(N)=O` (centres undefined): the viability, T/C (compound 0.00316 µM) is 107% [middle of 8 runs]; the viability, T/C (compound 0.01 µM) was 106% [middle of 8 runs]; the viability, T/C (compound 0.0316 µM) was 106% [middle of 8 runs]; the viability, T/C (compound 0.1 µM) was 105% [middle of 8 runs]; the viability, T/C (compound 0.316 µM) was 105% [middle of 8 runs]; the viability, T/C (compound 1 µM) was 92.3% [middle of 8 runs]. For the same molecule, the pIC50 under setting [1] was under 6.00.
For `CC(Nc1ncnc2nc[nH]c12)c1cc2cccc(Cl)c2c(=O)n1-c1ccccc1` (centres undefined), the viability, T/C by setting is: (compound 0.0316 µM) 105% [middle of 8 runs]; (compound 0.1 µM) 98.9% [middle of 8 runs]; (compound 0.316 µM) 103% [middle of 8 runs]; (compound 1 µM) 99.9% [middle of 8 runs]; (compound 3.16 µM) 105% [middle of 8 runs]; (compound 10 µM) 97.6% [middle of 8 runs]. The pIC50 under setting [2] was under 5.00.
`CC1(C)CCC(CN2CCN(c3ccc(C(=O)NS(=O)(=O)c4ccc(NCC5CCOCC5)c([N+](=O)[O-])c4)c(Oc4cnc5[nH]ccc5c4)c3)CC2)=C(c2ccc(Cl)cc2)C1`: the viability, T/C (compound 0.0316 µM) was 105% [middle of 4 runs]; the viability, T/C (compound 0.1 µM) was 106% and 102% (2×) and 85.6%; the viability, T/C (compound 0.316 µM) is 107% [middle of 4 runs]; the viability, T/C (compound 1 µM) was 104% [middle of 4 runs]; the viability, T/C (compound 3.16 µM) is 94.5% [middle of 4 runs].
In the case of `CCCS(=O)(=O)Nc1ccc(F)c(C(=O)c2c[nH]c3ncc(-c4ccc(Cl)cc4)cc23)c1F`, the viability, T/C reads like this: (compound 0.0316 µM) 104% [middle of 4 runs]; (compound 0.316 µM) 116% [middle of 4 runs]; (compound 10 µM) 7.9% [middle of 4 runs]. Under “curve of compound”, the 50% inhibitory concentration (IC50) (usually the concentration that gives 50% inhibition) is 6.15 µM [middle of 4 runs].
As to `CCN1CCN(Cc2ccc(Nc3ncc(F)c(-c4cc(F)c5nc(C)n(C(C)C)c5c4)n3)nc2)CC1`, the viability, T/C is, setting by setting: (compound 0.00316 µM) 108% [middle of 4 runs]; (compound 0.01 µM) 99.3% [middle of 4 runs]; (compound 0.0316 µM) 106% and 101% (2×) and 97%; (compound 0.1 µM) 94.1% [middle of 4 runs]; (compound 0.316 µM) 86.5% [middle of 4 runs]; (compound 1 µM) 87.5% [middle of 4 runs]. The pIC50 (curve of compound) is under 6.00.
As to `CNC(=O)c1ccc(N2C(=S)N(c3ccc(C#N)c(C(F)(F)F)c3)C(=O)C2(C)C)cc1F`, the viability, T/C (compound 0.0316 µM) is 105% (2×) and 88.4% and 94.7%; the viability, T/C (compound 0.1 µM) is 104% (2×) and 91.1% and 96.9%; the viability, T/C (compound 0.316 µM) is 102% (2×) and 88.4% and 109%; the viability, T/C (compound 1 µM) is 102% [middle of 4 runs]; the viability, T/C (compound 3.16 µM) was 107% [middle of 4 runs]; the viability, T/C (compound 10 µM) is 113% and 111% (2×) and 90%. For the same molecule, the pIC50 (curve of compound) was under 5.00.
On to `COc1c(OCCCN2CCOCC2)ccc2c3n(c(=NC(=O)c4cnc(N)nc4)nc12)CCN3`, for which the viability, T/C (compound 0.00316 µM) is 97.8% [middle of 8 runs]; the viability, T/C (compound 0.01 µM) was 101% [middle of 8 runs]; the viability, T/C (compound 0.0316 µM) was 97.6% [middle of 8 runs]; the viability, T/C (compound 0.1 µM) was 77.9% [middle of 8 runs]; the viability, T/C (compound 0.316 µM) was 65.8% [middle of 8 runs]; the viability, T/C (compound 1 µM) is 54.2% [middle of 8 runs]. Moreover, the pIC50 under setting [2] was under 6.00.
Regarding `C[C@@H](NC(=O)c1ncnc(N)c1Cl)c1ncc(C(=O)Nc2cc(C(F)(F)F)c(Cl)cn2)s1`, the viability, T/C is 108% [middle of 4 runs] (compound 0.0316 µM); 110% [middle of 4 runs] (compound 0.1 µM); 119% [middle of 4 runs] (compound 0.316 µM); 122% [middle of 4 runs] (compound 1 µM); 120% [middle of 4 runs] (compound 3.16 µM); 109% [middle of 4 runs] (compound 10 µM). Further, the pIC50 (curve of compound) was under 5.00.
Consider `Cc1nc(NC(=O)N2CCCC2C(N)=O)sc1-c1ccnc(C(C)(C)C(F)(F)F)c1` (centres undefined), for which the viability, T/C (compound 0.0316 µM) is 104% [middle of 8 runs]; the viability, T/C (compound 0.1 µM) is 103% [middle of 8 runs]; the viability, T/C (compound 0.316 µM) is 102% [middle of 8 runs]; the viability, T/C (compound 1 µM) is 99.1% [middle of 8 runs]; the viability, T/C (compound 3.16 µM) was 93.5% [middle of 8 runs]; the viability, T/C (compound 10 µM) was 75.9% [middle of 8 runs]. Moreover, the pIC50 under setting [1] is under 5.00.
As for `Cn1cnc2c(F)c(Nc3ccc(Br)cc3Cl)c(C(=O)NOCCO)cc21`, the viability, T/C runs as follows: (compound 0.00949 µM) 92.8% [middle of 4 runs]; (compound 0.03 µM) 89.9% [middle of 4 runs]; (compound 0.0949 µM) 93.2% [middle of 4 runs]; (compound 0.3 µM) 83% [middle of 4 runs]; (compound 0.949 µM) 52.5% [middle of 4 runs]; (compound 3 µM) 22% [middle of 4 runs]. Besides, the half-maximal inhibitory concentration (IC50) (curve of compound) is 1.07 µM [middle of 4 runs].
Regarding `Cn1ncnc1[C@H]1c2n[nH]c(=O)c3cc(F)cc(c23)N[C@@H]1c1ccc(F)cc1`, the viability, T/C (compound 0.000316 µM) is 104% [middle of 4 runs]; the viability, T/C (compound 0.001 µM) was 95% [middle of 4 runs]; the viability, T/C (compound 0.00316 µM) was 103% [middle of 4 runs]; the viability, T/C (compound 0.0316 µM) is 104% [middle of 4 runs]; the viability, T/C (compound 0.1 µM) was 95.2% [middle of 4 runs]. The negative logarithm of the IC50 (pIC50) (curve of compound) was under 7.00.

Values taken from PubChem BioAssay AID1963961 (Molecular Pharmacology Branch, DTP, NCI, 2024).
